Active and inactive are the calls of the source. No cut-off for these calls is given here.
Experiments:
Type in all cases: functional, organism-based
Parameters in all cases: dose 50 mg/kg
[1] = test system: Rattus norvegicus; test: Tested for antihypertensive activity at the dose of 50 mg/kg in spontaneously hypertensive rats; active
[2] = test system: Rattus norvegicus; test: Tested for relative acute toxicity at the dose of 50 mg/kg after intraperitoneal administration in spontaneously hypertensive rats; inactive
[3] = test system: Rattus norvegicus; test: Tested for antihypertensive activity at the dose of 50 mg/kg in spontaneously hypertensive rats; inactive
[4] = test system: Rattus norvegicus; test: Tested for relative acute toxicity at the dose of 50 mg/kg after intraperitoneal administration in spontaneously hypertensive rats; active
[5] = test system: Rattus norvegicus; test: Tested for reflex tachycardia at the dose of 50 mg/kg when administered intraperitoneally in spontaneously hypertensive rats; active

CCOC(=O)[C@H]1[C@H](c2cccc([N+](=O)[O-])c2)C(C(=O)OC)=C(C)N2C[C@H](C)O[C@@]12C
Activity [1]: Active

COC(=O)C1=C(C)N2C[C@H](C)O[C@@]2(C)[C@@H](C(=O)OC)[C@@H]1c1cccc(Cl)c1
Activity [2]: inactive

CCOC(=O)[C@@H]1[C@@H](c2cccc([N+](=O)[O-])c2)C(C(=O)OC)=C(C)N2C[C@@H](C)O[C@]12C
Activity [3]: inactive

COC(=O)C1=C(C)N2C[C@@H](C)O[C@]2(C)[C@H](C(=O)OC)[C@H]1c1cccc(Cl)c1
Activity [4]: Active

CCOC(=O)[C@H]1[C@H](c2cccc([N+](=O)[O-])c2)C(C(=O)OC)=C(C)N2CCO[C@@]12C
Activity [1]: Active

COC(=O)C1=C(C)NC(C)=C(C(=O)OC)C1c1ccccc1[N+](=O)[O-]
Activity [5]: Active
